Source: the NIST ThermoML archive (doi:10.1016/j.jct.2011.08.016)

Experiment: xn = mol fraction of the nth substance listed
Settings: Liquid, Vibrating tube method

CCCCCCCCCC [decane] + CCCCCCC
Settings | mass density [kg/m3]
363.02 K, 16000 kPa, x2 = 0.777 | 658.24
363.02 K, 17000 kPa, x2 = 0.5219 | 673.01
363.02 K, 17000 kPa, x2 = 0.777 | 659.41
363.02 K, 18000 kPa, x2 = 0.5219 | 674.09
363.02 K, 18000 kPa, x2 = 0.777 | 660.5
363.02 K, 19000 kPa, x2 = 0.5219 | 675.09
363.02 K, 19000 kPa, x2 = 0.777 | 661.57
363.02 K, 20000 kPa, x2 = 0.5219 | 676.07
363.02 K, 20000 kPa, x2 = 0.777 | 662.62
363.02 K, 21000 kPa, x2 = 0.5219 | 677.05
363.02 K, 21000 kPa, x2 = 0.777 | 663.64
363.02 K, 22000 kPa, x2 = 0.5219 | 677.98
363.02 K, 22000 kPa, x2 = 0.777 | 664.64
363.02 K, 23000 kPa, x2 = 0.5219 | 678.94
363.02 K, 23000 kPa, x2 = 0.777 | 665.63
363.02 K, 24000 kPa, x2 = 0.5219 | 679.87
363.02 K, 24000 kPa, x2 = 0.777 | 666.6
363.02 K, 25000 kPa, x2 = 0.5219 | 680.76
363.02 K, 25000 kPa, x2 = 0.777 | 667.53
363.03 K, 1000 kPa, x2 = 0.0531 | 674.85
363.03 K, 1000 kPa, x2 = 0.952 | 627.08
363.03 K, 2000 kPa, x2 = 0.0531 | 676.04
363.03 K, 2000 kPa, x2 = 0.952 | 628.62
363.03 K, 3000 kPa, x2 = 0.0531 | 677.23
363.03 K, 3000 kPa, x2 = 0.952 | 630.14
363.03 K, 4000 kPa, x2 = 0.0531 | 678.38
363.03 K, 4000 kPa, x2 = 0.952 | 631.64
363.03 K, 5000 kPa, x2 = 0.0531 | 679.52
363.03 K, 5000 kPa, x2 = 0.952 | 633.12
363.03 K, 6000 kPa, x2 = 0.0531 | 680.65
363.03 K, 6000 kPa, x2 = 0.952 | 634.56
363.03 K, 7000 kPa, x2 = 0.0531 | 681.75
363.03 K, 7000 kPa, x2 = 0.952 | 635.98
363.03 K, 8000 kPa, x2 = 0.0531 | 682.84
363.03 K, 8000 kPa, x2 = 0.952 | 637.36
363.03 K, 9000 kPa, x2 = 0.0531 | 683.92
363.03 K, 9000 kPa, x2 = 0.952 | 638.71
363.03 K, 10000 kPa, x2 = 0.0531 | 684.98
363.03 K, 10000 kPa, x2 = 0.952 | 640.03
363.03 K, 11000 kPa, x2 = 0.0531 | 686.02
363.03 K, 11000 kPa, x2 = 0.952 | 641.33
363.03 K, 12000 kPa, x2 = 0.0531 | 687.05
363.03 K, 12000 kPa, x2 = 0.952 | 642.61
363.03 K, 13000 kPa, x2 = 0.0531 | 688.07
363.03 K, 13000 kPa, x2 = 0.952 | 643.86
363.03 K, 14000 kPa, x2 = 0.0531 | 689.07
363.03 K, 14000 kPa, x2 = 0.952 | 645.09
363.03 K, 15000 kPa, x2 = 0.0531 | 690.05
363.03 K, 15000 kPa, x2 = 0.952 | 646.3
363.03 K, 16000 kPa, x2 = 0.0531 | 691.03
363.03 K, 16000 kPa, x2 = 0.952 | 647.49
363.03 K, 17000 kPa, x2 = 0.0531 | 691.98
363.03 K, 17000 kPa, x2 = 0.952 | 648.66
363.03 K, 18000 kPa, x2 = 0.0531 | 692.93
363.03 K, 18000 kPa, x2 = 0.952 | 649.8
363.03 K, 19000 kPa, x2 = 0.0531 | 693.87
363.03 K, 19000 kPa, x2 = 0.952 | 650.92
363.03 K, 20000 kPa, x2 = 0.0531 | 694.79
363.03 K, 20000 kPa, x2 = 0.952 | 652.02
363.03 K, 21000 kPa, x2 = 0.0531 | 695.7
363.03 K, 21000 kPa, x2 = 0.952 | 653.1
363.03 K, 22000 kPa, x2 = 0.0531 | 696.6
363.03 K, 22000 kPa, x2 = 0.952 | 654.16
363.03 K, 23000 kPa, x2 = 0.0531 | 697.47
363.03 K, 23000 kPa, x2 = 0.952 | 655.2
363.03 K, 24000 kPa, x2 = 0.0531 | 698.37
363.03 K, 24000 kPa, x2 = 0.952 | 656.21
363.03 K, 25000 kPa, x2 = 0.0531 | 699.21
363.03 K, 25000 kPa, x2 = 0.952 | 657.21
363.06 K, 1000 kPa, x2 = 0.2594 | 666.7
363.06 K, 2000 kPa, x2 = 0.2594 | 667.89
363.06 K, 3000 kPa, x2 = 0.2594 | 669.1
363.06 K, 4000 kPa, x2 = 0.2594 | 670.27
363.06 K, 5000 kPa, x2 = 0.2594 | 671.44
363.06 K, 6000 kPa, x2 = 0.2594 | 672.61
363.06 K, 7000 kPa, x2 = 0.2594 | 673.77
363.06 K, 8000 kPa, x2 = 0.2594 | 674.91
363.06 K, 9000 kPa, x2 = 0.2594 | 676.05
363.06 K, 10000 kPa, x2 = 0.2594 | 677.17
363.06 K, 11000 kPa, x2 = 0.2594 | 678.26
363.06 K, 12000 kPa, x2 = 0.2594 | 679.34
363.06 K, 13000 kPa, x2 = 0.2594 | 680.41
363.06 K, 14000 kPa, x2 = 0.2594 | 681.46
363.06 K, 15000 kPa, x2 = 0.2594 | 682.5
363.06 K, 16000 kPa, x2 = 0.2594 | 683.52
363.06 K, 17000 kPa, x2 = 0.2594 | 684.53
363.06 K, 18000 kPa, x2 = 0.2594 | 685.52
363.06 K, 19000 kPa, x2 = 0.2594 | 686.5
363.06 K, 20000 kPa, x2 = 0.2594 | 687.43
363.06 K, 21000 kPa, x2 = 0.2594 | 688.35
363.06 K, 22000 kPa, x2 = 0.2594 | 689.23
363.06 K, 23000 kPa, x2 = 0.2594 | 690.14
363.06 K, 24000 kPa, x2 = 0.2594 | 691.03
363.06 K, 25000 kPa, x2 = 0.2594 | 691.89
